# Like-named read-outs stand apart in the source and are kept apart here.
# Key:
# [1] = tested on: HIV strain A17 (Y181C); assay: p24 production in PBMNC infected with A17; assay type: cell-based, HIV-1; conditions: for IC50: Human immunodeficiency virus 1, read-out: IC50 p24
# Description: (§1) Normal human peripheral blood mononuclear cells (PBMNC) from HIV-negative donors were cultured 72 hours in RPMI 1640 supplemented with 20% (v/v) heat-inactivated fetal bovine serum (FBS), 3% interleukin-2, 2 mM L-glutairtine, 25 mM HEPES, 2 μL, NAHCO, […] gentamicin, and 4 μg/mL phytohemagglutinin prior to exposure to HIV-I at a multiplicity of infection (MOI) of 0.1 during a one-hour adsorption period at 37'C in a humidified 5% C02 atmosphere. Subsequently, cells were cultured in 96-well microliter plates (100 μl/well; 2×10^6 cells/mL, triplicate wells) in the presence of various inhibitor concentrations and aliquots of culture supernatants were removed from the wells on the 7th day after infection for p24 antigen p24 enzyme immunoassays (EIA), as previously described. (see Erice et. al., 1993, Antiimicrob. Ag. Chemotherapy 37:835–838) The applied p24 EIA was the unmodified kinetic assay commercially available from Coulter Corporation/Immunotech, Inc. (Westbrooke, Me.), which utilizes a murine monoclonal antibody to HIV core protein coated onto microwell strips to which the antigen present in the test culture supernatant samples binds. Percent inhibition of viral replication was calculated by comparing the p24 values from the test substance treated infected cells with p24 values from untreated infected cells (i.e., virus controls). In parallel, the effects of various treatments on cell viability were also examined, as described in Enrice et. al., supra. In brief, non-infected PBNWC were treated with each compound for 7 days under identical experimental conditions. A Microculture Tetrazolium Assay (NTFA), using 2,3-bis(2-methoxy-4 nitro-5-sulfophenyl)-5-[(phenylamino)-carbonyl]-2H-tetrazolium hydroxide (XTT), was performed to quantitate cellular proliferation.
# [2] = tested on: HIV strain HTLV-IIIB (WT); assay: p24 production in PBMNC infected with HTLV-IIIB; assay type: cell-based, HIV-1
# Description: (§2) Percent inhibition of viral replication was calculated by comparing the p24 values from the test substance treated infected cells with p24 values from untreated infected cells (i.e., virus controls). In parallel, the effects of various treatments on cell viability were also examined, as described in Enrice et. al., supra. In brief, non-infected PBNWC were treated with each compound for 7 days under identical experimental conditions. A Microculture Tetrazolium Assay (NTFA), using 2,3-bis(2-methoxy-4 nitro-5-sulfophenyl)-5-[(phenylamino)-carbonyl]-2H-tetrazolium hydroxide (XTT), was performed to quantitate cellular proliferation.
# [3] = tested on: HIV strain RT-MDR (74V, 41L, 106A, 215Y); assay: microbe, parasite or virus in culture; assay type: cell-based, HIV-1; conditions: for times less potent than DDE240: multiple drug resistant mutant strain
# Description: as §2
# [4] = tested on: HIV strain A17 variant (Y181C, K103N); assay: p24 production in PBMNC infected with A17 variant; assay type: cell-based, HIV-1; conditions: Human immunodeficiency virus 1, read-out: IC50 p24
# Description: as §1
# [5] = target: T1, purified recombinant HIV RT (Human immunodeficiency virus type 1 group M subtype B, UniProt P04585); assay: Purified RT assay, cell-free Quan-T-RT system (scintillation proximity); assay type: biochemical; conditions: for IC50: recombinant HIV RT, cell-free
# T1 construct: purified recombinant HIV RT
# Description: The primer DNA is a 16-mer oligo(T) which has been annealed to a poly(A) template. The primer/template is bound to a strepavidin-coated SPA bead.
# 3H-TTP is incorporated into the primer by reverse transcription. […] The compound being tested was added to the reaction mixture at 0.001 μM–100 μM concentrations. […] The reaction was stopped by addition of 0.2 ml of 120 mM EDTA. The samples were counted in an open window using a Beckman LS 7600 instrument and IC, values were calculated by comparing the measurements to untreated samples.
# [6] = Human immunodeficiency virus 1, IIIB, HIV replication assay
# [7] = Human immunodeficiency virus 1, read-out: IC50 p24, RT-MDR (74V, 41L, 106A, 215Y), PBMNC
# [8] = Human immunodeficiency virus 1, HTLV IIIB WT, PBMNC, read-out: IC50 p24
# [9] = Human immunodeficiency virus 1, HTLV IIIB, PBMNC, read-out: IC50[p24]
SMILES,IC50 [1] [nM],"IC50 [3, 7] [nM]","IC50 [2, 8] [nM]",IC50 [4] [nM],IC50 ([5]; read-out: RRT (IC50[rRT])) [nM],also measured
"Cc1cn([C@H]2C[C@H](N=[N+]=[N-])[C@@H](CO)O2)c(=O)[nH]c1=O [AZT, reference compound]",6,150,,,,"IC90 [2, 6]: 100 nM"
"COc1ccc(OC)c(CCNC(=S)Nc2ccc(Br)cn2)c1 [DDE236, N-[2-(2,5-dimethoxyphenylethyl)]-N′-[2-(5-bromopyridyl)]-thiourea]",100,5,< 1,11000,,"IC90 fold better than AZT ([2]; HIV replication assay): 10 fold; IC90 [2, 6]: 9 nM; selectivity index (IC50[MTA]/IC50[p24]) ([2]; calculated): > 10^5; melting point: 133 to 138 °C; times more potent than trovirdine ([5]; purified recombinant HIV-RT): 8 times"
"Fc1ccccc1CCNC(=S)Nc1ccc(Br)cn1 [DDE240, N-[2-(2-fluorophenethyl)]-N′-[2-(5-bromopyridyl)]-thiourea]",200,6,< 1,41000,,"times better activity than delavirdine ([1]; Y181C mutant): 200 times; times more potent than nevirapine ([1]; Y181C mutant): more than 500 times; IC50 [2, 9]: < 1 nM; melting point: 156 to 157 °C; fold better activity than delavirdine ([3]; MDR HIV): 100 fold; fold better activity than nevirapine ([3]; MDR HIV): 800 fold; IC50 ([3]; read-out: IC50 p24, RT-MDR (74V, 41L, 106A, 215Y), PBMNC): 5 nM"
Fc1cccc(CCNC(=S)Nc2ccc(Br)cn2)c1 [DDE241],,20,< 1,,760,
Fc1ccc(CCNC(=S)Nc2ccc(Br)cn2)cc1 [DDE242],,,,,6060,"IC50 [2, 9]: 10 nM; IC50 ([5]; RRT (IC50[rRT])): 6000 nM"
S=C(NCCc1ccccc1Cl)Nc1ccc(Br)cn1 [DDE253],,4,< 1,,,
"CC(C)Nc1cccnc1N1CCN(C(=O)c2cc3cc(NS(C)(=O)=O)ccc3[nH]2)CC1 [Delavirdine, reference compound]",50000,400,9,> 100000,,
"CCOCn1c(Cc2ccccc2)c(C(C)C)c(=O)[nH]c1=O [MKC-442, reference compound]",,300,,,800,
"Cc1ccnc2c1NC(=O)c1cccnc1N2C1CC1 [Nevirapine, reference compound]",> 100000,5000,34,> 100000,,
"S=C(NCCc1ccccn1)Nc1ccc(Br)cn1 [Trovirdine, reference compound]",,,,,,"IC50 ([2]; Human immunodeficiency virus 1, IIIB, read-out: IC50 p24): 7 nM; times less potent than DDE240 ([2]; zidovudine-sensitive strain HTLV IIIB): 10 times; IC50 ([3]; Human immunodeficiency virus 1, read-out: IC50 p24): 20 nM; times less potent than DDE240 [3]: up to 7 times; times less potent than DDE240 ([3]; listed as Trouviridine): three times less potent"
